Measurements reported in patent publication US20240156825A1, “USE OF SELECTIVE VEGFR2 AND FGFR1 INHIBITORS” (Fountain Therapeutics Inc., priority 2022, published 2024).
Where two headings read alike, the source gives them in different places.

What was measured:
[1] = target: T1, VEGFR2 (Homo sapiens, UniProt P35968); details: relative IC50: reported IC50 toward VEGFR2 divided by next lowest reported IC50 to any gene target
[2] = target: T1, VEGFR2; details: reported IC50 to VEGFR2, read-out: VEGFR2 IC50_μM, cited from earlier work
[3] = system: any gene target; details: next lowest IC50 value to any gene target, read-out: Min IC50_μM, cited from earlier work
[4] = Table 3, selective inhibitors of VEGFR2

T1 sequence (P35968 20-1356, species assumed): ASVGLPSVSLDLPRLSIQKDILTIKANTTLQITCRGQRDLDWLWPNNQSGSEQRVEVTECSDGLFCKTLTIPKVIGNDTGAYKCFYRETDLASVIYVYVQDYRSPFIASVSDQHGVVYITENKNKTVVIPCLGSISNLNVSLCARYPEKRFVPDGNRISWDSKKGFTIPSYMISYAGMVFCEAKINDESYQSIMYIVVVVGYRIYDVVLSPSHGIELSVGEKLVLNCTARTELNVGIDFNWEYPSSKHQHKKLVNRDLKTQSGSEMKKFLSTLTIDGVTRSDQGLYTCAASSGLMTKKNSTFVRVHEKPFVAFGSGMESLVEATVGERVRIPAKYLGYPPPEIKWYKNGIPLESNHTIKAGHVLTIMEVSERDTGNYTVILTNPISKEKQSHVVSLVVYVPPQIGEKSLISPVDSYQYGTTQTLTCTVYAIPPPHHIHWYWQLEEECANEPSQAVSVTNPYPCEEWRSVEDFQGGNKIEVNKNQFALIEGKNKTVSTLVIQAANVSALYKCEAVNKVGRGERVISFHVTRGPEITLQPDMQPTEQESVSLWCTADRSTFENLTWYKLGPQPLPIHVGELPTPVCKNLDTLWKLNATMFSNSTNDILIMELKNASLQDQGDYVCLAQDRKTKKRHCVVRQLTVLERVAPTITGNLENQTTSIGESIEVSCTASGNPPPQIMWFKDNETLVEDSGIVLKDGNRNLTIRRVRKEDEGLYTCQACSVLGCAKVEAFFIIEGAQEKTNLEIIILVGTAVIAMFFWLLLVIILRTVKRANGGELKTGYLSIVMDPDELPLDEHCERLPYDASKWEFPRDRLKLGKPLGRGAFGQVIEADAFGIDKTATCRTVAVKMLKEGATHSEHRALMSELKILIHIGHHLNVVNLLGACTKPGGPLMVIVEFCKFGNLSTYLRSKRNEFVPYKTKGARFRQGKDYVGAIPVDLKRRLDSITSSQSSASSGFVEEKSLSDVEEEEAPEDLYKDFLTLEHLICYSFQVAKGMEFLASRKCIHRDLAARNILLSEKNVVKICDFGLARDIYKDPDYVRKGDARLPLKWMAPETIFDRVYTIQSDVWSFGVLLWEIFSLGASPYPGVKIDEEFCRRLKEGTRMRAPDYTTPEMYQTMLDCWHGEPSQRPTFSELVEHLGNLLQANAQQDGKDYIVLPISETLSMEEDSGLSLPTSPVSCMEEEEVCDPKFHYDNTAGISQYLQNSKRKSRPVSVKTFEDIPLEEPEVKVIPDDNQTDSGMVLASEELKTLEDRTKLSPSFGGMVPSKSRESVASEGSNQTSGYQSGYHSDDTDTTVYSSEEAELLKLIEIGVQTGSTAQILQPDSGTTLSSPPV

| SMILES | VEGFR2, rIC50 [1] | IC50 [2, 4] [nM] | IC50 ([3]; Table 3) [nM] | IC50 [2] [nM] | IC50 [3] [nM] |
| --- | --- | --- | --- | --- | --- |
| CONC(=O)c1cc(Nc2ncnn3cc(NC(=O)OCC4CCCO4)c(C(C)C)c23)c(F)cc1F (centres unmarked) [compound 11477626, [4-(2,4-Difluoro-5-methoxycarbamoyl-phenylamino)-5-isopropyl-pyrrolo[2,1-f][1,2,4]triazin-6-yl]-carbamic acid tetrahydro-furan-2-ylmethyl ester] | 1.0 | – | – | – | – |
| COc1cc2c(Nc3ccc(Cl)c(Cl)c3F)ncnc2cc1OC[C@@H]1CN2CCOC[C@H]2CO1 [compound 66838539] | – | 50 | 50 | – | – |
| COc1cc2c(Nc3ccc(Cl)c(Cl)c3)ncnc2cc1OC[C@H]1CN2CCC[C@H]2CO1 [compound 66838546] | – | 50 | 50 | – | – |
| COc1cc2c(Nc3ccc(Br)c(Cl)c3Cl)ncnc2cc1OC[C@@H]1CN2CCOC[C@H]2CO1 [compound 66838558] | – | 50 | 50 | – | – |
| COc1cc2c(Nc3ccc(F)c(Cl)c3F)ncnc2cc1OC[C@@H]1CN2CCOC[C@H]2CO1 [compound 66838567] | – | 50 | 50 | – | – |
| COc1cc2c(Nc3cc(Cl)c(Br)cc3F)ncnc2cc1OC[C@@H]1CN2CCC[C@H]2CO1 [compound 66839071] | – | 50 | 50 | – | – |
| COc1cc2c(Nc3ccc(Br)c(Cl)c3Cl)ncnc2cc1OC[C@@H]1CO[C@H]2[C@@H]1OC[C@@H]2OC [compound 66954887] | – | 50 | 50 | – | – |
| COc1cc2c(Nc3cc(Cl)c(Cl)cc3F)ncnc2cc1OC[C@@H]1CO[C@H]2[C@@H]1OC[C@@H]2OC [compound 66954904] | – | 50 | 50 | – | – |
| COc1cc2c(Nc3ccc(Cl)c(Cl)c3)ncnc2cc1OC[C@@H]1CO[C@H]2[C@@H]1OC[C@@H]2OC [compound 66955051] | – | 50 | 50 | – | – |
| CCN(CC)[C@H]1CO[C@H]2[C@@H]1OC[C@@H]2Oc1cc2ncnc(Nc3ccc(Br)c(Cl)c3)c2cc1OC [compound 67163520] | – | 50 | 50 | – | – |
| Nc1c(C(=O)c2cc3ccccc3[nH]2)cnn1-c1ccc2nc[nH]c2c1 [compound 68005732, [5-Amino-1-(1H-benzimidazol-6-yl)-1H-pyrazol-4-yl]-1H-indol-2-ylMethanone] | 10.3 | – | – | – | – |
| COc1cc2c(Oc3ccc(NC(=O)C4(C(=O)Nc5ccc(F)cc5)CC4)cc3F)ccnc2cc1OCCCC(=O)NO [compound 71466525] | – | – | – | 12 | 19 |
| O=C(NCCc1ccc(O)c(Br)c1)/C(Cc1cc(Br)c(O)c(Oc2ccc(CCNC(=O)/C(Cc3cc(Br)c(O)c(-c4cc(C/C(=N\O)C(=O)NCCc5ccc(O)c(Br)c5)cc(Br)c4O)c3)=N/O)cc2Br)c1)=N/O [compound 71524406] | – | 600 | 600 | – | – |
| COc1ccc2c(c1)/C(=C/c1cc3c([nH]1)CCN(C(=O)N1CCN(C)CC1)C3)C(=O)N2 [compound 71714231] | – | 6 | 6 | – | – |
| CN1CCC(Nc2ccc3c(c2)/C(=C/c2cc4c([nH]2)CCN(C(=O)N2CCOCC2)C4)C(=O)N3)CC1 [compound 71714235] | – | 3 | 3 | – | – |
| COc1cc2c(Nc3ccc(Cl)cc3F)ncnc2cc1OCC1CCNCC1 [compound 73349643] | – | – | – | 50 | 60 |
| COc1cc2c(Nc3ccc(Cl)cc3F)ncnc2cc1OCCCN1CCCC1 [compound 73352657] | – | 8 | 8 | – | – |
| COc1cc2c(Nc3cc(O)c(Cl)cc3F)ncnc2cc1OCC1CCN(C)CC1 [compound 73357210] | – | 3 | 3 | – | – |
| CN=C(NC#N)N1CCOC(COc2cc3ncnc(Nc4ccc(Cl)c(C)c4)c3cc2OC)C1 (centres unmarked) [compound 89125605] | – | 50 | 50 | – | – |
| CNc1cc2c(cn1)cc(-c1ccc(F)c(NC(=O)Nc3cc(C(C)(C)C)no3)c1)c(=O)n2[C@H]1CCOC1 [compound 122177477] | – | – | – | 0.46 | 1 |
| O=C(Nc1ccc(Oc2ncnc3sc4c(c23)CCCC4)cc1)Nc1cccc(Br)c1 [compound 122193773] | – | – | – | 11 | 17 |

| SMILES | VEGFR2, rIC50 [1] | IC50 [2, 4] [nM] | IC50 ([3]; Table 3) [nM] | IC50 [2] [nM] | IC50 [3] [nM] |
| --- | --- | --- | --- | --- | --- |
| COc1cc2ncnc(Nc3cccc(Cl)c3)c2cc1OCCC(=O)NO [compound 122195525] | – | – | – | 476 | 645 |
| COc1cc2ncnc(Nc3ccc(F)cc3)c2cc1OCCCC(=O)NO [compound 127026070] | – | – | – | 376 | 1340 |
| COc1cc2ncnc(Nc3ccccc3Cl)c2cc1OCCCC(=O)NO [compound 127027019] | – | – | – | 857 | 1260 |
| COc1cc2ncnc(Nc3ccc(Cl)cc3)c2cc1OCCCC(=O)NO [compound 127027096] | – | – | – | 182 | 698 |
| COc1cc2ncnc(Nc3ccc(Br)cc3)c2cc1OCCCC(=O)NO [compound 127027714] | – | – | – | 98 | 545 |
| COc1cc2ncnc(Nc3ccc(Br)cc3)c2cc1OCCCCC(=O)NO [compound 127028028] | – | – | – | 59 | 68 |
| CS(=O)(=O)Cc1cccc(Nc2nccc(Oc3ccc4c(C(=O)Nc5cccnc5)cccc4c3)n2)c1 [compound 127037812] | – | – | – | 0.5 | 4.9 |
| COc1cc2c(Nc3ccc(Cl)c(Cl)c3)ncnc2cc1O[C@@H]1C[C@H]2OC[C@H](OC)[C@H]2O1 [compound 134140126] | – | 50 | 50 | – | – |
| COc1cc2c(Nc3cccc(Cl)c3F)ncnc2cc1OCC1CN(C(N)=NC#N)CCCO1 (centres unmarked) [compound 134142438] | – | 50 | 50 | – | – |
| COc1cc2c(Nc3ccc(Br)c(Cl)c3Cl)ncnc2cc1OC[C@H]1CN2CCCC[C@H]2CO1 [compound 134150926] | – | 50 | 50 | – | – |
| COc1cc2c(Nc3cccc(Cl)c3Cl)ncnc2cc1OCC1CN(C(C)=N)CCCO1 (centres unmarked) [compound 134151034] | – | 50 | 50 | – | – |
| COc1cc2c(Nc3cc(Cl)c(Br)cc3F)ncnc2cc1OCC1COCCN1C (centres unmarked) [compound 134154844] | – | 50 | 50 | – | – |
| COc1cc2c(Nc3ccc(Br)c(Cl)c3F)ncnc2cc1O[C@@H]1C[C@H]2OC[C@H](OC)[C@H]2O1 [compound 134155171] | – | 50 | 50 | – | – |
| COC(=O)c1ccc2c(C(=Nc3ccc(N(C)C(=O)Cn4ccnc4)cc3)c3ccccc3)c(O)[nH]c2c1 [compound 135399795] | – | – | – | 6 | 7 |
| CC(C)(Nc1nc(Nc2ccc3ncsc3c2)[nH]c(=O)n1)c1ccccc1 [compound 135454992] | – | – | – | 35 | 550 |
| Nc1ccc2c(c1)C(c1ccccc1Cl)=Nc1cn[nH]c1N2 [compound 136002661] | – | – | – | 34 | 88 |
| CC(=O)Nc1ccc2c(c1)C(c1ccccc1Cl)=Nc1cn[nH]c1N2 [compound 136002662] | – | – | – | 33 | 38 |
| Cc1ccc(NC(=O)C2(C(=O)Nc3ccc(Nc4ncc(F)c(-c5cc(F)c6nc(C)n(C(C)C)c6c5)n4)cc3)CC2)cc1 [compound 155517777] | – | 46 | 46 | – | – |
| C[C@@H]1CN(C(=O)CCCC(=O)N2C[C@@H](C)c3c2cc(O)c2ccccc32)c2cc(O)c3ccccc3c21 [compound 155536201] | – | – | – | 330 | 540 |
| O=C(CSC(=S)N1CCCCC1)Nc1cccc(NC(=O)c2ccccn2)c1 [compound 155562216] | – | – | – | 27 | 84 |
